Experimental data published in ChEMBL document CHEMBL5291721, “A preclinical secondary pharmacology resource illuminates target-adverse drug reaction associations of marketed drugs” (Nat Commun, 2023).

Tests used:
Mu-type opioid receptor = Mu-type opioid receptor (Homo sapiens, UniProt P35372); assay: biochemical; format: functional
[1] = molecular target: Glutamate receptor ionotropic, NMDA 1 (Rattus norvegicus, UniProt P35439)
D(1A) dopamine receptor = D(1A) dopamine receptor (Homo sapiens, UniProt P21728); format: functional, cell-based
Progesterone receptor = molecular target: T1, Progesterone receptor (Homo sapiens, UniProt P06401); format: functional
T1 sequence (P06401 whole entry): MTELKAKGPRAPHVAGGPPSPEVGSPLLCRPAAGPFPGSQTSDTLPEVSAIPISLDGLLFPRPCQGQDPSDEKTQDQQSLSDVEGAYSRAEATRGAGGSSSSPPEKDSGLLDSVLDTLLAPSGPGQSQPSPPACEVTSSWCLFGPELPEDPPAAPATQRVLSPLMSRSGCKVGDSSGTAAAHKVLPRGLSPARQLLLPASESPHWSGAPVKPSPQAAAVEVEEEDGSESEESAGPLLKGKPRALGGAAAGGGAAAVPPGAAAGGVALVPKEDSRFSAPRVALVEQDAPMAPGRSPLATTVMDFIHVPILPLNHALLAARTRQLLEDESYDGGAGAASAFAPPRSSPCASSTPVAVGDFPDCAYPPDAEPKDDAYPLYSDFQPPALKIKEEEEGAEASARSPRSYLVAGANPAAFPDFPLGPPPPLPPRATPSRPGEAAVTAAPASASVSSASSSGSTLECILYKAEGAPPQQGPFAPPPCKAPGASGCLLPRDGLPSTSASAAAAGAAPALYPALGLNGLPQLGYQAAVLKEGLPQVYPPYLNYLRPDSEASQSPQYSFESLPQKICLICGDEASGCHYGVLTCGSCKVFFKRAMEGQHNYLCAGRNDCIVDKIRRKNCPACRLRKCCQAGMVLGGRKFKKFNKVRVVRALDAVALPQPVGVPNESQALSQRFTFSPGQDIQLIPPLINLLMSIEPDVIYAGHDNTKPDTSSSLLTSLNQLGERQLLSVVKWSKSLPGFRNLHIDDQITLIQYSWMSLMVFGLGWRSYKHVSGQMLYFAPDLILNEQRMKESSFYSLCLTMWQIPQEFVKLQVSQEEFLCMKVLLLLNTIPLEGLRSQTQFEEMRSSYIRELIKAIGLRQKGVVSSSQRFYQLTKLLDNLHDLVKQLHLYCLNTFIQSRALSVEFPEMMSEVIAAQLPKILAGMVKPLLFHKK

Thromboxane A2 receptor = molecular target: T2, Thromboxane A2 receptor (Homo sapiens, UniProt P21731)
T2 sequence (P21731 whole entry): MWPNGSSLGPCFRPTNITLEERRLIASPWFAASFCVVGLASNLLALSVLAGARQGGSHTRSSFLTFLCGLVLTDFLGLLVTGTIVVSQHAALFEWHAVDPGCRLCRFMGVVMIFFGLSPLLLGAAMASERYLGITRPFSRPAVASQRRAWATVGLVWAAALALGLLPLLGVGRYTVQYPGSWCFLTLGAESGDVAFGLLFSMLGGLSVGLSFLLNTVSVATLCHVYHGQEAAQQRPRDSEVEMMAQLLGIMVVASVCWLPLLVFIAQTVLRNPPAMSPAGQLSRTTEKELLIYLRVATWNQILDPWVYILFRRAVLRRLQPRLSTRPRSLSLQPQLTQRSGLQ

Endothelin-1 receptor = molecular target: T3, Endothelin-1 receptor (Homo sapiens, UniProt P25101)
T3 sequence (P25101 whole entry): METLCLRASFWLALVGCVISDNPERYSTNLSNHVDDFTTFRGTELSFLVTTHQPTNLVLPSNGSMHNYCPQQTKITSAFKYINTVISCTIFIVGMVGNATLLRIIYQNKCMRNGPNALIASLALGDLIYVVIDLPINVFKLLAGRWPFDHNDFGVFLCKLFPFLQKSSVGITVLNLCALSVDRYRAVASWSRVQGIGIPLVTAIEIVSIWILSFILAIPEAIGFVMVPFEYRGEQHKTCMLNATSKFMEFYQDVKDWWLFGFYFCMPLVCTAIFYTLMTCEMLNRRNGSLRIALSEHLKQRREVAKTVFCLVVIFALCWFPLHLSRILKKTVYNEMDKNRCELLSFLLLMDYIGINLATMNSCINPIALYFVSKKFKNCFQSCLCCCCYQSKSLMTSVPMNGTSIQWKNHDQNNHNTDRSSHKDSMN

Cannabinoid receptor 1 = Cannabinoid receptor 1 (Homo sapiens, UniProt P21554); format: functional, cell-based
Estrogen receptor = molecular target: T4, Estrogen receptor (Homo sapiens, UniProt P03372)
T4 sequence (P03372 whole entry): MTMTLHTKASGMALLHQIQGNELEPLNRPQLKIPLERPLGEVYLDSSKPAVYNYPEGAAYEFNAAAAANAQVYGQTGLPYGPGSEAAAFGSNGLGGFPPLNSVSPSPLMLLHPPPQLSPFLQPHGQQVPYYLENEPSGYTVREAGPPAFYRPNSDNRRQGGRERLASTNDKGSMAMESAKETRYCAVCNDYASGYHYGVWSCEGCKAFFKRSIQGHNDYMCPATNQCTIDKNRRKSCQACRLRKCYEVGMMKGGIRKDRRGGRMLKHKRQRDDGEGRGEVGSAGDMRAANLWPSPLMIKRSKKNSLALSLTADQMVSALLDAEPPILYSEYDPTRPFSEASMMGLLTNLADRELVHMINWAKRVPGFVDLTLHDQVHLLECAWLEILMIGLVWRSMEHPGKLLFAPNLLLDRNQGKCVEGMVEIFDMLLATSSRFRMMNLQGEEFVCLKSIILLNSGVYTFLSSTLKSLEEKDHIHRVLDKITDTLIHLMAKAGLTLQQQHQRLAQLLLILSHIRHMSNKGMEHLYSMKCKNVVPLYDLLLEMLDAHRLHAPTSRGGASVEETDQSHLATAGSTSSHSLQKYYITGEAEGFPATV

[2] = molecular target: T5, Gastrin/cholecystokinin type B receptor (Homo sapiens, UniProt P32239)
T5 sequence (P32239 whole entry): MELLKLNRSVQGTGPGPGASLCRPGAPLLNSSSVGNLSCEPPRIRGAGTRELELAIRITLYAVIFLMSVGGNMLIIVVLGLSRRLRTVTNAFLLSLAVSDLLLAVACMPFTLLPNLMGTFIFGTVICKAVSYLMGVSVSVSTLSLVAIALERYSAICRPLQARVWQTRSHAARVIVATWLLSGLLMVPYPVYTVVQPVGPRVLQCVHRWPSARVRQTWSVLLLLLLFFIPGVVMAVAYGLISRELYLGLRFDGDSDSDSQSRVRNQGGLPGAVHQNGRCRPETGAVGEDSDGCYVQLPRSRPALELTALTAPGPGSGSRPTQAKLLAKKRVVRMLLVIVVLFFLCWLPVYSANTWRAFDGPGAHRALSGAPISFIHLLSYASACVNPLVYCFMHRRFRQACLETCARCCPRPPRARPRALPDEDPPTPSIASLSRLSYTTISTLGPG
Note: assay procedure not described here.

Cannabinoid receptor 1, sequence (P21554 whole entry): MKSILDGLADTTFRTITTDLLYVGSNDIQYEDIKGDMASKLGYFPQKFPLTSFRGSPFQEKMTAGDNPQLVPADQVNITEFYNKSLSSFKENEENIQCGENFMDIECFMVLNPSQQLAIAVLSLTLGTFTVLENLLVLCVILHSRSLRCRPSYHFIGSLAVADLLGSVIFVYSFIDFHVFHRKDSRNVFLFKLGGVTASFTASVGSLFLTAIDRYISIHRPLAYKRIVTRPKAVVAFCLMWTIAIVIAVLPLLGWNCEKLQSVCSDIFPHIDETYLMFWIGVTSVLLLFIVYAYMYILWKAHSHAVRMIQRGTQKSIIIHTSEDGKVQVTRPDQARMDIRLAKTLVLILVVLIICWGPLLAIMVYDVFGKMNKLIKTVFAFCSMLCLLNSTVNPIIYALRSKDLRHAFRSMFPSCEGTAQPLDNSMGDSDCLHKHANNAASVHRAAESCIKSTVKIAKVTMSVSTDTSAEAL
D(1A) dopamine receptor, sequence (P21728 whole entry): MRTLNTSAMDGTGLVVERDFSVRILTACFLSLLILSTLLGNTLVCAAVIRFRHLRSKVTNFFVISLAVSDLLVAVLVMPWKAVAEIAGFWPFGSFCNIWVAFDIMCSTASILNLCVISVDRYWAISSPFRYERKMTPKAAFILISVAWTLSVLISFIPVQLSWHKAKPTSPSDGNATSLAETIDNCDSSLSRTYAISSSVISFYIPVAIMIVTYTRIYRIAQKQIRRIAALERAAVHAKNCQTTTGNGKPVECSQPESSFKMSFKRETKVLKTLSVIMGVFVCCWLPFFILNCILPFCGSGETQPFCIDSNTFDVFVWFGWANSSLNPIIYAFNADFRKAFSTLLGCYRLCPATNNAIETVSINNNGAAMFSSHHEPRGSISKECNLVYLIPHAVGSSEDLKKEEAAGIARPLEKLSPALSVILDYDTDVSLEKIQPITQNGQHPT
Mu-type opioid receptor, sequence (P35372 whole entry): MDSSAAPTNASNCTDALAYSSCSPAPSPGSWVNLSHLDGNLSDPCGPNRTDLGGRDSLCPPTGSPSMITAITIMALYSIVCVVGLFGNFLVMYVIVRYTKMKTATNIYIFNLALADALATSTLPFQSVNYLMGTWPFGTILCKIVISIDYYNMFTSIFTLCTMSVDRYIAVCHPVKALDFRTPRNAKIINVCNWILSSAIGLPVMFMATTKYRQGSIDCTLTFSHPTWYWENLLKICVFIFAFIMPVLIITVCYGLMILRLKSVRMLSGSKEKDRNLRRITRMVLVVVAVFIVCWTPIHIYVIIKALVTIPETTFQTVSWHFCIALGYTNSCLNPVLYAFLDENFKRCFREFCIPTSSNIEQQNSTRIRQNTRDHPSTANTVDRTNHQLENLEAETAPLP

SMILES | AC50 (Mu-type opioid receptor) | AC50 [1] | AC50 (D(1A) dopamine receptor) | AC50 (Progesterone receptor) | AC50 (Thromboxane A2 receptor) | AC50 (Endothelin-1 receptor) | AC50 (Cannabinoid receptor 1) | AC50 (Estrogen receptor) | AC50 [2]
CCn1c(=O)c2c(nc(/C=C/c3ccc(OC)c(OC)c3)n2C)n(CC)c1=O [ISTRADEFYLLINE] |  |  |  | > 30 µM |  |  |  |  | 
CC1(C)O[C@@H]2C[C@H]3[C@@H]4CCC5=CC(=O)C=C[C@]5(C)[C@@]4(F)[C@@H](O)C[C@]3(C)[C@]2(C(=O)CO)O1 [TRIAMCINOLONE ACETONIDE] | > 30 µM | > 30 µM | > 30 µM |  | > 30 µM | > 30 µM | > 30 µM |  | > 30 µM
COc1cccc2c1C(=O)c1c(O)c3c(c(O)c1C2=O)C[C@@](O)(C(=O)CO)C[C@@H]3O[C@H]1C[C@H](N)[C@H](O)[C@H](C)O1 [DOXORUBICIN] |  | > 10 µM | > 30 µM | > 30 µM |  | > 30 µM | > 30 µM | 0.53 µM | > 30 µM
N=C(N)NC(=O)c1nc(Cl)c(N)nc1N [AMILORIDE] | 4 µM | > 30 µM | > 30 µM | > 30 µM | > 30 µM | > 30 µM |  | > 30 µM | > 30 µM
CC(C)(C)NCC(O)COc1ccccc1C#N (centres undefined) [BUNITROLOL] | > 30 µM | > 30 µM | > 30 µM |  |  |  | > 30 µM |  | 
COc1ccc(C(=O)c2ccccc2)c(O)c1 [OXYBENZONE] | > 30 µM | > 30 µM | > 30 µM |  |  |  | > 30 µM |  | 
CCC(=O)c1ccc2c(c1)N(CC(C)N(C)C)c1ccccc1S2 (centres undefined) [PROPIOMAZINE] |  | > 10 µM | > 10 µM | > 30 µM | > 10 µM |  |  | > 30 µM | 
Cc1ccc(O)c([C@H](CCN(C(C)C)C(C)C)c2ccccc2)c1 [TOLTERODINE] |  | > 10 µM | > 10 µM |  |  |  | > 30 µM |  | 
Oc1cc(Cl)ccc1Oc1ccc(Cl)cc1Cl [TRICLOSAN] | > 30 µM | > 30 µM | > 30 µM | 18 µM | 21 µM | > 30 µM | > 30 µM |  | > 30 µM

Continued, values first:

AC50 (Mu-type opioid receptor) | AC50 [1] | AC50 (D(1A) dopamine receptor) | AC50 (Progesterone receptor) | AC50 (Thromboxane A2 receptor) | AC50 (Endothelin-1 receptor) | AC50 (Cannabinoid receptor 1) | AC50 (Estrogen receptor) | AC50 [2] | SMILES
> 30 µM | > 30 µM | > 30 µM | > 30 µM | > 30 µM | > 30 µM | > 30 µM | > 30 µM | > 30 µM | CC(C)(Oc1ccc(Cl)cc1)C(=O)OCCOC(=O)c1cccnc1 [ETOFIBRATE]
> 30 µM | > 30 µM | > 30 µM |  | > 30 µM | > 30 µM |  |  | > 30 µM | C[C@]12CCC(=O)C=C1[C@@H]1C[C@@H]1[C@H]1[C@@H]3[C@@H]4C[C@@H]4[C@@]4(CCC(=O)O4)[C@@]3(C)CC[C@@H]12 [DROSPIRENONE]
> 30 µM | > 30 µM | > 30 µM |  | 16 µM | > 10 µM | > 30 µM | > 30 µM | 5.3 µM | COc1ccc(-c2cc(=S)ss2)cc1 [ANETHOLTRITHION]
 | > 10 µM | > 10 µM | > 10 µM | > 10 µM |  | > 30 µM | > 10 µM |  | CN(C)CCC(O)(c1ccccc1)c1ccccc1Cl (centres undefined) [CHLOPHEDIANOL]
 | > 10 µM | > 10 µM | > 30 µM | > 10 µM |  | > 30 µM |  |  | CN(C)[C@@H]1C(O)=C(C(=O)NCN2CCCC2)C(=O)[C@@]2(O)C(O)=C3C(=O)c4c(O)cccc4[C@@](C)(O)[C@H]3C[C@@H]12 [ROLITETRACYCLINE]
 | > 10 µM | > 10 µM |  | > 30 µM | > 30 µM | > 30 µM | > 30 µM | > 30 µM | C[C@]12C=CC(=O)C=C1CC[C@@H]1[C@@H]2[C@@H](O)C[C@@]2(C)[C@H]1CC[C@]2(O)C(=O)CO [PREDNISOLONE]
> 30 µM | > 30 µM | > 30 µM |  | > 30 µM | > 30 µM | > 30 µM | > 30 µM | > 30 µM | C[C@]12CCC(=O)C=C1C=C[C@@H]1[C@@H]2CC[C@@]2(C)[C@H]1CC[C@@]21CCC(=O)O1 [CANRENONE]
> 30 µM | > 30 µM | > 30 µM | > 3 µM |  | > 30 µM | > 30 µM | > 30 µM | > 30 µM | C[C@]12C=CC(=O)C=C1C(Cl)=C[C@@H]1[C@@H]2[C@@H](O)C[C@@]2(C)[C@H]1CC[C@]2(O)C(=O)CO [CLOPREDNOL]
